In US8426353B2, “Process for preparing polyurea microcapsules” (Firmenich SA, priority 2008, dated 2013):
Where two headings read alike, the source gives them in different places.

How the values were obtained:
[1] = GC-MS analysis of perfume leaked out of the capsules during one month storage in concentrated liquid detergent; assay type: physicochemical; conditions: for Percentage of perfume having leaked out of the capsules upon one month storage, % In Concentrated Liquid Detergent at 22° C. / Percentage of perfume having leaked out of the capsules upon one month storage, % In Concentrated Liquid Detergent at 37° C.: perfume of Example 9 encapsulated per Example 2, capsules at 1.25% in Tide 2x Concentrated HE Free; for Percentage of perfume having leaked out of the capsules upon one month storage, % In Concentrated Liquid Detergent at 22° C. / Percentage of ingredient having leaked out of the capsules during one month storage, % In concentrated Liquid Detergent 22° C.: one month at 22° C.; for Percentage of perfume having leaked out of the capsules upon one month storage, % In Concentrated Liquid Detergent at 37° C. / Percentage of ingredient having leaked out of the capsules during one month storage, % In concentrated Liquid Detergent 37° C.: one month at 37° C.; for Percentage of ingredient having leaked out of the capsules during one month storage, % In concentrated Liquid Detergent 22° C. / Percentage of ingredient having leaked out of the capsules during one month storage, % In concentrated Liquid Detergent 37° C.: perfume of Example 6 encapsulated per Example 2, capsules at 1.25% in Tide 2x Concentrated HE Free
Text: The concentrated liquid detergent base was a commercially available Tide® 2× Concentrated HE Free of perfume & dye (trademark of Procter and Gamble, USA).
The concentrated liquid detergent base was the commercially available Tide® 2× Concentrated HE Free of perfume & dye (trademark of Procter and Gamble, USA).

[2] = LogP of the perfume ingredients
[3] = GC-MS analysis of perfume leaked out of the capsules during one month storage in concentrated fabric softener; assay type: physicochemical; conditions: for Percentage of perfume having leaked out of the capsules upon one month storage, % In fabric softener at 22° C. / Percentage of perfume having leaked out of the capsules upon one month storage, % In fabric softener at 37° C.: perfume of Example 9 encapsulated per Example 2, capsules at 1.25%; for Percentage of perfume having leaked out of the capsules upon one month storage, % In fabric softener at 22° C.: one month at 22° C.; for Percentage of perfume having leaked out of the capsules upon one month storage, % In fabric softener at 37° C. / Percentage of ingredient having leaked out of the capsules during one month storage, % In fabric softener 37° C.: one month at 37° C.; for Percentage of ingredient having leaked out of the capsules during one month storage, % In fabric softener 37° C.: perfume of Example 6 encapsulated per Example 2, capsules at 1.25%
Protocol: The concentrated fabric softener base was prepared by admixing the ingredients listed in Table 4, in the amounts indicated.

[4] = ingredients of the perfume of Example 9 (Table 9)
[5] = ingredients of the perfume of Example 6 (Table 1)

Compound | Percentage of perfume having leaked out of the capsules upon one month storage, % In Concentrated Liquid Detergent at 22° C. [1] [%] | Percentage of perfume having leaked out of the capsules upon one month storage, % In Concentrated Liquid Detergent at 37° C. [1] [%] | LogP [2, 4] | Percentage of perfume having leaked out of the capsules upon one month storage, % In fabric softener at 22° C. [3] [%] | Percentage of perfume having leaked out of the capsules upon one month storage, % In fabric softener at 37° C. [3] [%] | LogP [2] | Percentage of ingredient having leaked out of the capsules during one month storage, % In concentrated Liquid Detergent 22° C. [1] [%] | Percentage of ingredient having leaked out of the capsules during one month storage, % In concentrated Liquid Detergent 37° C. [1] [%] | LogP [2, 5] | Percentage of ingredient having leaked out of the capsules during one month storage, % In fabric softener 37° C. [3] [%]
CC(C)=CC1CC(C)CCO1 (stereo not shown) [Rose oxide] | 8 | 92 | 3.58 | 8 | 68 | – | – | – | – | –
C=CCOC(=O)CCCCCC [Allyl heptanoate] | 46 | 100 | – | 46 | 98 | 3.67 | – | – | – | –
CC1=CCC(C(C)CC2CCCC2=O)CC1 (stereo not drawn) [Nectalactone, (1′R)-2-[2-(4′-methyl-3′-cyclohexen-1′-yl)propyl]cyclopentanone] | – | – | – | – | – | – | 1 | 19 | 5.05 | 5
CC12CCC(CC1)C(C)(C)O2 [1,8-Cineole] | – | – | – | – | – | – | 2 | 21 | 3.13 | 11
CC1CCC(C(C)(C)O)CC1 (stereo not shown) [Dihydroterpineol] | 13 | – | 3.42 | 13 | 85 | – | – | – | – | –
C=CCCC(=O)C1=CCCC(C)(C)C1 [Neobutenone ® alpha, 1-(5,5-dimethyl-1-cyclohexen-1-yl)-4-penten-1-one] | – | – | – | – | – | 4.45 | 1 | 27 | – | 9
CC(=O)OC(C)(C)C1CCC(C)CC1 (stereo not shown) [Dihydroterpenyl acetate] | 2 | 16 | 4.42 | 2 | 0 | – | 1 | 14 | 4.42 | 4
CCCCCCC(C=O)=Cc1ccccc1 [Hexyl cinnamic aldehyde] | 2 | 46 | – | 2 | 18 | 4.82 | – | – | – | –
